According to publication PMC8326056 (Journal of Animal Science, 2021):
Counter-ions that a name gives are not always drawn.

Legend:
bovine β 3-AR = molecular target: T1, bovine β 3-AR (Bos taurus, UniProt P46626); assay: cAMP induction in CHO cells transfected with bovine β 3-AR construct (LANCE cAMP kit); type: cell-based; details: 45 min, 5 mM theophylline
T1 construct: expressed in transfected cells; host or cells: Chinese hamster ovary (CHO) cells, pcDNA3.1+ vector
Procedure: (§1) Chinese Hamster Overy cells were transfected with either the bovine β 1-, β 2-, or β 3-AR constructs in pcDNA3.1+. Expression of the β-AR was confirmed by polymerase chain reaction (PCR). Thereafter, cells were grown in DMEM/Ham’s F12 media with 10% FBS and 1% penicillin/streptomycin at 37 °C under 5% CO2. Opti-plates (Perkin Elmer, Waltham, MA) were used for all experiments. For each experiment, cells were plated into 96-well tissue culture plates at 60,000 cells per well in a volume of 100 µL media. Cells were grown for 48 hr after plating prior to ligand addition and determination of cAMP.
(§2) All samples and standards were tested in duplicate for each repetition, and 4 repetitions per cell line were performed for each potential ligand tested. Controls included no treatment (media alone), 5 mM theophylline alone (an inhibitor of phosphodiesterase), 0.1 % DMSO alone, and water alone. None of the controls differed from media alone and are thus not reported. A volume of media equal to the volume of test material to be added was removed from the well just prior to stimulation. Theophylline was added in a volume of 25 µL to obtain a final concentration of 5 mM and each test molecule was delivered in 10 µL. Cells were returned to 37 °C and allowed to incubate for 45 min before media was removed and the cells lysed in 38 µL lysis buffer A. The LANCE cAMP detection kit (AD0262E) was purchased from Perkin Elmer. The LANCE assay instructions were followed for a 40 µL reaction volume with 15 µL of cell lysate. The reaction was incubated for 20 hr prior to measuring fluorescence. A standard curve was generated with increasing concentrations of cAMP, and the linear portion of the curve was used to calculate sample cAMP concentrations.

bovine β 1-AR = molecular target: T2, bovine β 1-AR (Bos taurus, UniProt Q9TT96); assay: cAMP induction in CHO cells transfected with bovine β 1-AR construct (LANCE cAMP kit); type: cell-based; details: 45 min, 5 mM theophylline, ND = cAMP not detected or insufficient for EC50
T2 construct: expressed in transfected cells; host or cells: Chinese hamster ovary (CHO) cells, pcDNA3.1+ vector
Procedure: as §1, §2

[1] = test system: bovine i.m. adipose tissue; assay: Lipolysis: glycerol release, i.m. adipose tissue explants; type: cell-based, bovine (Angus cross steers); details: 30 min; for Effect on glycerol release (in words): i.m. adipose tissue; for Glycerol: i.m., mean ± SEM, baseline 48.6 ± 10.3
[2] = test system: bovine i.m. adipose tissue; assay: cAMP in i.m. adipose tissue explants (Cyclic AMP XP Assay Kit); type: cell-based, bovine (Angus cross steers); details: for Effect on cAMP (in words): ligand alone; for Effect on cAMP (in words) / cAMP: 30 min; for cAMP: i.m., mean ± SEM, n = 6 steers, baseline 0.64 ± 0.19
Procedure: (§3) Fresh s.c. adipose tissue was cut into small pieces (50 to 100 mg, actual weight recorded) and i.m. adipose tissue was dissected from the LM as described previously ([Smith and Crouse, 1984]; [Miller et al., 1988]) and weighed. The s.c. and i.m. adipose samples were incubated according to 3 different sets of experimental conditions. Experiment 1: Small pieces of s.c. and i.m. adipose tissues (50 to 100 mg; 1 to 2 mm thick; [Smith and Prior, 1981]) were preincubated in 6-well tissue culture plates in a CO2/O2 incubator (NuAire model 4750 CO2 incubator, Plymouth, MN) for 30 min at 37 °C, 5% CO2 in KHB plus 5 mM glucose, 10 mM HEPES, and 0.5 mM theophylline. […] Experiment 2: The s.c. and i.m. adipose samples were preincubated in KHB plus 5 mM glucose, 10 mM HEPES, and 0.5 mM theophylline in the presence or absence of either 10 µM L-748,337 (β 3-AR antagonist) or 50 µM PRO (β-AR pan-antagonist). […] After the 30 min preincubation, either DOB (β 1-AA) or SAL (β 2-AA) was added to the culture plate wells in a concentration-dependent manner (10^–9 to 10^–4 M) for an additional 30 min. For all experiments, there were at least 3 replicate wells per treatment condition. After a total of 1-hr incubation, the adipose samples were homogenized in 1 mL cell lysis buffer (Cell Signaling Technology, Danvers, MA) with 1 mM phenymethylsulfony fluoride, and centrifuged at 14,000 × g for 30 min to remove tissue debris. The supernatant fractions were stored at −80 °C until subsequent analyses were performed.
(§4) The concentration of cAMP was determined based on the principle of competitive binding using the Cyclic AMP XP Assay Kit according to the manufacturer’s instructions. Cytosolic extracts from the adipose explants were co-incubated at room temperature for 3 hr in 96-well plates with the HRP-linked cAMP substrate coated onto an immobilized rabbit monoclonal cAMP antibody using a horizontal orbital plate shaker. After the reaction, color development was measured at 450 nm using an Epoch microplate reader (Biotek Instruments, Winooski, VT). All samples were analyzed in duplicate. A standard curve and cAMP concentrations were calculated using GrapPad Prism 6.04 software (GraphPad Software Inc., San Diego, CA).

[3] = test system: bovine s.c. adipose tissue; assay: Lipolysis: NEFA release, s.c. adipose tissue explants; type: cell-based, bovine (Angus cross steers); details: for Effect on NEFA release (in words) / NEFA: 30 min; for NEFA: s.c., mean ± SEM, baseline 0.99 ± 0.40
[4] = test system: bovine s.c. adipose tissue; assay: Lipolysis: glycerol release, s.c. adipose tissue explants; type: cell-based, bovine (Angus cross steers); details: for Glycerol: s.c., mean ± SEM, baseline 50.0 ± 12.8
[5] = test system: bovine i.m. adipose tissue; assay: Lipolysis: NEFA release, i.m. adipose tissue explants; type: cell-based, bovine (Angus cross steers); details: 30 min; for Effect on NEFA release (in words): i.m. adipose tissue; for NEFA: i.m., mean ± SEM, baseline 0.65 ± 0.20
[6] = test system: bovine s.c. adipose tissue; assay: cAMP in s.c. adipose tissue explants (Cyclic AMP XP Assay Kit); type: cell-based, bovine (Angus cross steers); details: for Effect on cAMP (in words): ligand alone; for Effect on cAMP (in words) / cAMP: 30 min; for cAMP: n = 6 steers, baseline 0.42 ± 0.06
Procedure: as §3, §4

[7] = s.c., 10^–6 M ligand, mean ± SEM
[8] = s.c., 10^–7 M ligand, mean ± SEM
[9] = s.c., 10^–8 M ligand, mean ± SEM
[10] = Bos taurus, sc, 0.5 h, s.c. adipose tissue, 30 min at 37 °C, n = 5

T2 sequence (Q9TT96 whole entry): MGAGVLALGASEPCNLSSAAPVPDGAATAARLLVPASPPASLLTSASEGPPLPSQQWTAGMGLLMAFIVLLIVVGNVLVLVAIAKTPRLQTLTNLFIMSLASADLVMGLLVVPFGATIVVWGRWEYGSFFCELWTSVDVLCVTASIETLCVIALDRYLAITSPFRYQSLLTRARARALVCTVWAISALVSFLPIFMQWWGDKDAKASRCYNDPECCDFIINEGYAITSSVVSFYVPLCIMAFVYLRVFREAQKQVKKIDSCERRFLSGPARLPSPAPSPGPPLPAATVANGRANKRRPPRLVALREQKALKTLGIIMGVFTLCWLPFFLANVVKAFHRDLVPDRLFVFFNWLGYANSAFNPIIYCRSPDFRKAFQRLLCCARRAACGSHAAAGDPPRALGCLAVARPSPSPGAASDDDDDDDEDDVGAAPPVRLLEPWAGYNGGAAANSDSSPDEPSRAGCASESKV
T1 sequence (P46626 whole entry): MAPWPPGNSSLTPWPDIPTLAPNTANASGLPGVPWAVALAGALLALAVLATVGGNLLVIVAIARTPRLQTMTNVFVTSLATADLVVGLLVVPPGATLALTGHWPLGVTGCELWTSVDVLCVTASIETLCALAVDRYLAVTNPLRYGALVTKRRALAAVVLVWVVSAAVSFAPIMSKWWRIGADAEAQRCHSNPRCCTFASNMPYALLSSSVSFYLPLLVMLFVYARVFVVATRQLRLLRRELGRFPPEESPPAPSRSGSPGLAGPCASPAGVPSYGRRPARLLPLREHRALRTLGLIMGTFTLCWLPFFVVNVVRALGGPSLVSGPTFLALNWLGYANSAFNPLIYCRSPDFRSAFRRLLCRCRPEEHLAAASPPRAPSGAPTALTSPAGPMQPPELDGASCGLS

EC50 (bovine β 3-AR) [µM] | Compound | Effect on glycerol release (in words) [1] | Glycerol ([1]; 10^–6 M ligand) [nmol/100 mg tissue] | Glycerol ([1]; 10^–7 M ligand) [nmol/100 mg tissue] | Glycerol ([1]; 10^–8 M ligand) [nmol/100 mg tissue] | Effect on cAMP (in words) ([2]; i.m. adipose tissue) | cAMP ([2]; 10^–6 M ligand) [pmol/100 mg tissue] | cAMP ([2]; 10^–7 M ligand) [pmol/100 mg tissue] | cAMP ([2]; 10^–8 M ligand) [pmol/100 mg tissue] | Effect on NEFA release (in words) ([3]; s.c. adipose tissue) | NEFA ([3]; 10^–6 M ligand) [µmol/100 mg tissue] | NEFA ([3]; 10^–7 M ligand) [µmol/100 mg tissue] | NEFA ([3]; 10^–8 M ligand) [µmol/100 mg tissue] | Glycerol ([4]; 10^–6 M ligand, 30 min) [nmol/100 mg tissue] | Glycerol ([4]; 10^–7 M ligand, 30 min) [nmol/100 mg tissue] | Glycerol ([4]; 10^–8 M ligand, 30 min) [nmol/100 mg tissue] | Effect on NEFA release (in words) [5] | NEFA ([5]; 10^–6 M ligand) [µmol/100 mg tissue] | NEFA ([5]; 10^–7 M ligand) [µmol/100 mg tissue] | Effect on cAMP (in words) ([6]; s.c. adipose tissue) | also measured
0.024 | CC(CCc1ccc(O)cc1)NCC(O)c1ccc(O)cc1.Cl (racemic) [RAC, ractopamine hydrochloride] | Neither RAC nor ZIL affected cAMP production or glycerol or NEFA release | 42.6 ± 11.4 | 81.7 ± 25.5 | 52.4 ± 16.4 | Neither RAC nor ZIL (10^–8 to 10^–6 M) affected cAMP concentrations | 0.70 ± 0.18 | 0.76 ± 0.18 | 0.86 ± 0.22 | Neither RAC nor ZIL affected cAMP production or glycerol or NEFA release | 1.06 ± 0.13 | 1.20 ± 0.21 | 1.10 ± 0.15 | 63.3 ± 9.20 | 52.6 ± 11.1 | 50.3 ± 7.60 | Neither RAC nor ZIL affected cAMP production or glycerol or NEFA release | 0.56 ± 0.13 | 1.18 ± 0.50 | Neither RAC nor ZIL (10^–8 to 10^–6 M) affected cAMP concentrations | EC50 (bovine β 1-AR): 0.002 µM; NEFA ([5]; 10^–8 M ligand): 0.75 ± 0.21 µmol/100 mg tissue; cAMP [6, 7]: 0.44 ± 0.14 pmol/100 mg tissue; cAMP [6, 8]: 0.38 ± 0.08 pmol/100 mg tissue; cAMP [6, 9]: 0.39 ± 0.09 pmol/100 mg tissue
9.1 | CC(C)N[C@@H]1CCn2c(=O)[nH]c3cccc(c32)[C@H]1O (racemic) [ZIL, zilpaterol hydrochloride] | Neither RAC nor ZIL affected cAMP production or glycerol or NEFA release | 46.0 ± 14.5 | 48.6 ± 13.7 | 67.4 ± 21.6 | Neither RAC nor ZIL (10^–8 to 10^–6 M) affected cAMP concentrations | 0.78 ± 0.39 | 0.51 ± 0.13 | 0.79 ± 0.30 | Neither RAC nor ZIL affected cAMP production or glycerol or NEFA release | 1.17 ± 0.35 | 1.25 ± 0.31 | 1.06 ± 0.30 | 65.9 ± 12.6 | 59.3 ± 15.4 | 54.8 ± 8.0 | Neither RAC nor ZIL affected cAMP production or glycerol or NEFA release | 0.50 ± 0.16 | 0.91 ± 0.30 | Neither RAC nor ZIL (10^–8 to 10^–6 M) affected cAMP concentrations | Induction of cAMP (EC50), β 1-Construct (bovine β 1-AR): no detectible cAMP response; NEFA ([5]; 10^–8 M ligand): 0.78 ± 0.28 µmol/100 mg tissue; cAMP [6, 7]: 0.62 ± 0.27 pmol/100 mg tissue; cAMP [6, 8]: 0.61 ± 0.27 pmol/100 mg tissue; cAMP [6, 9]: 0.76 ± 0.37 pmol/100 mg tissue
 | C[C@H](Cc1ccc(OCC(=O)O)cc1)NC[C@H](O)c1cccc(Cl)c1 [BRL-37344] |  |  |  |  |  |  |  |  | Neither BRL-37344 nor LUB influenced cAMP or NEFA concentrations |  |  |  |  |  |  | not influenced |  |  | Neither BRL-37344 nor LUB influenced cAMP or NEFA concentrations | cAMP concentration compared with explants treated with the same concentrations of LUB ([2]; i.m. adipose tissue, 10^–6 and 10^–5 M, P < 0.05): significantly less; Adipose tissue lipolytic sensitivity (−logEC50) to β-AR ligands, s.c. ([6]; s.c., cAMP readout, mean ± SEM, n = 12 cattle, combinations: preincubation with 1 µM LUB ± 10 µM L-748,337): 7.00 ± 3.27
 | CC(CCc1ccc(O)cc1)NCCc1ccc(O)c(O)c1 (stereo not drawn) [DOB, dobutamine hydrochloride] |  |  |  |  | without effect in i.m. adipose tissue |  |  |  |  |  |  |  |  |  |  |  |  |  | increased cAMP production in s.c. adipose tissue in a dose-dependent manner | 
 | CC(C)NCC(O)c1ccc(O)c(O)c1 (stereo not drawn) [ISO, isoproterenol hydrochloride] | had no effect |  |  |  | not dose-dependent |  |  |  | increased NEFA release in a dose-dependent manner |  |  |  |  |  |  | failed to elicit a similar response curve |  |  | increased cAMP accumulation | EC50 [3, 10]: 0.18 µM; EC50 [4, 10]: 5.1 µM; Effect on glycerol release (in words) ([4]; s.c. adipose tissue, 30 min): increased glycerol release in a concentration-dependent manner; EC50 ([6]; Bos taurus, sc, 0.5 h, s.c. adipose tissue, 30 min at 37 °C, n = 5, read-out: EC50, cAMP accumulation): 0.22 µM; Concentration at which the cAMP response plateaus ([6]; s.c. adipose tissue): 10^–6 M
 | CC(C)(C)NCC(O)c1ccc(O)c(CO)c1 (stereo not drawn) [SAL, salbutamol sulfate] |  |  |  |  | without effect in i.m. adipose tissue |  |  |  |  |  |  |  |  |  |  |  |  |  | increased cAMP production in s.c. adipose tissue in a dose-dependent manner | 
